According to patent EP0926242A1, “GLIOTOXIN DERIVATIVES AND ANTICANCER AGENT COMPRISING THE SAME” (priority 1996, dated 1998):

Columns and labels:
[1] = Solubility of the isolated active component; format: physicochemical
Description: After cultivation by the above method was finished, an equal amount (3 L) of acetone was added to the 3 L culture solution, and extraction was carried out at room temperature for 30 minutes. Acetone was removed from the acetone-containing cultuer solution by an evaporator, and solvent extraction with ethyl acetate was carried out by a separating funnel. The solvent extract was dehydrated by sodium sulfate, and then, evaporated by an evaporator to dryness under reduced poressure to obtain 470 mg of the extract. Subsequently, the extract was adsorbed on a silica gel column, washed with toluene, and active fractions were eluted by toluene/ethyl acetate (8:2). The eluate was concentrated by an evaporator under reduced pressure to obtain 42 mg. The crude matters were subjected to high speed liquid chromatography ("Capsel-Pak C18", Shiseido, solvent: water:acetonitrile = 72:28), and a pure active substance was obtained by isochromatic elution. […] Ultraviolet absorption spectra end 266 nm (water: acetonitrile = 60 : 40) Molecular weight: 368 Thin layer chromatography: Absorbent; HPTLC Kieselgel 60 F 254 (MERK) Developing solvent: hexane : ethyl acetate = 6 : 4 R f value; 0.233 High speed liquid chromatogaphy: Used apparatus; UV detector : Waters 996 (Waters) Pump: HITACHI L―6200 (Hitachi Ltd.) Column: Reversed phase high speed liquid chromatography column for analysis (CAPCELL PAK C18 UG120 5 µ m 4.6 mm ⌀ × 250 mm (Shiseido) Solvent for elution; 30-100 % acetonitrile (linear grudient 20 minutes) Flow rate; 0.8 mL/min Retention time; about 10.5 minutes • Chemical shift values (cf. Fig. 1) in ^1H nuclear magnetic resonance spectra • ^1H―NMR (CDCl3) δ :5.97―6.04 (3H, m), 5.57 (1H, d), 5.02 (1H, d), 4.31 (1H, dd), 4.19 (1H, dd), 3.74 (1H, d), 3.44 (1H, dd), 3.17 (3H, s), 2.96 (1H, d), 2.14 (3H, s) • FAB MASS : 369 (MH^+) • Chemical shift values (cf. Fig. 2) in ^13C nuclear magnetic resonance spectra (600 MH3, CDCL3)

[2] = system: mouse carcinoma of the colon COLON-26; assay: Evaluation in vivo using mouse carcinoma of the colon COLON-26 (Example 1); settings: day 21, CDFI mice
Description: CDFI mice (female: 4 weeks old) were bought, and colon-26 subcultured in vivo in the subcutaneous tissue was taken out. The colon-26 was minced in a Petridish, and transplanted into the sulcutaneous tissue of CDFI mice in an amount of 10 mg/mouse by a trucker. The transplanted day was assigned day 0, and the size of the tumor and body weight were measured on day 7 and divided into groups by n=4. The size of tumor was calculated as tumor weight by the following formula. (Tumor Weight (mg) = Tumor Volume (mm)^3 =1/2 × Major Axis (mm) × Minor Axis (mm))^2 [formula]
Administration was carried out from day 7 according to the following schedule. Dose was 0.2 mL/mouse, and injected into abdominal cavity. Acetylgliotoxin was dissolved in dimethyl sulfoxide (DMSO) in a concentration of 100 mg/mL, and adjusted to an object concentration (0.5 mg/kg, 1 mg/kg, 10 mg/kg, 20 mg/kg) by 5% Tween 80 (saline solution). In the evaluation of […], 1 mg/kg, injection was carried out every day for 5 days, in the case of 10 mg/kg, injected twice on day 7 and day 8, and in the case of 20 mg/kg, injected once on day 7.
The anticancer effect was evaluated by the inhibition rate of tumor cell multiplication (IR calculated from the weight of tumor. IR was obtained by the following formula. IR (%) = (1-Tumor Weight of Administration Group/Tumor Weight of Control Group) [formula]

[3] = system: human carcinoma of the colon HCT-116; assay: Evaluation in vivo using human carcinoma of the colon HCT-116 (Example 1); set-up: species or system Balb/c nu/nu mice; settings: for I. R. (%): day 21, Balb/c nu/nu mice
Description: (§1) Balb/c nu/nu mice (female: 5 weeks old) were bought, and HCT- 116 subcultured in vivo in the subcutaneous tissue was taken out. The HCT-116 was minced in a Petridish, and transplanted into the sulcutaneous tissue of […] mice in an amount of 30 mg/mouse by a trucker. The transplanted day was assigned day 0, and the size of the tumor and body weight were measured on day 7 and divided into groups by n=2.
(§2) Acetylgliotoxin was dissolved in dimethyl sulfoxide (DMSO) in a concentration of 100 mg/mL, and adjusted to an object concentration (0.5 mg/kg, 1 mg/kg, 10 mg/kg, 20 mg/kg) by 5 % Tween 80 (saline solution). In the evaluation of 0.5, 1 mg/kg, injection was carried out every day for 5 days, in the case of 10 mg/kg, injected twice on day 7 and day8, and in the case of 20 mg/kg, injected once on day 7.
The anticancer effect was evaluated by the inhibition rate of tumor cell multiplication (IR calculated from the weight of tumor. IR was obtained by the following formula.

[4] = Body weight in the HCT-116 evaluation in vivo (Example 1); set-up: species or system Balb/c nu/nu mice; settings: day 21, HCT-116 mice, control 17.5 g
Description: as §1, §2

SMILES: CC(=O)OC1C=CC=C2CC34SSC(CO)(C(=O)N3C21)N(C)C4=O (stereo not shown) [acetylgliotoxin]
- Solubility ([1]; in chloroform and dimethyl sulfoxide): Easily soluble
- Solubility ([1]; in ethyl acetate, acetonitrile, toluene, methanol and acetone): soluble
- Solubility ([1]; in water): slightly soluble
- I. R. (%) ([2]; 0.5 mg/kg×5 i.p.(d7-11)): 28%
- I. R. (%) ([2]; 1 mg/kg×5 i.p.(d7-11)): 19%
- I. R. (%) ([2]; 10 mg/kg×2 i.p.(d7, 8)): 38%
- I. R. (%) ([2]; 20 mg/kg×1 i.p.(d7)): 34%
- I. R. (%) ([3]; 0.5 mg/kg×5 i.p.(d7-11)): 41%
- I. R. (%) ([3]; 1 mg/kg×5 i.p.(d7-11)): 65%
- I. R. (%) ([3]; 10 mg/kg×2 i.p.(d7, 8)): 65%
- I. R. (%) ([3]; 20 mg/kg×1 i.p. (d7)): 28%
- duration of anticancer effects ([3]; Test Example (B), 1 mg/kg × 5 and 10 mg/kg × 2): continued up to day 42
- weight ([4]; 0.5 mg/kg×5 i.p.(d7-11)): 17.1 g
- weight ([4]; 1 mg/kg×5 i.p.(d7-11)): 17.8 g
- weight ([4]; 10 mg/kg×2 i.p.(d7, 8)): 15.8 g
- weight ([4]; 20 mg/kg×1 i.p. (d7)): 15.9 g
